PubChem BioAssay AID248 (DTP/NCI, 2004)
Several values for one entry are separate records, joined by “and”; a condition that tells them apart may be missing. Equal values may be shown once. Toxic doses and inconclusive results are not listed. Rule as the data show it: active = T/C of 150% or more; inactive = T/C below 125%.

Tested on: L1210 leukemia ip in BDF1 mice, survival T/C
Test: NCI In Vivo Anticancer Drug Screen. Data for tumor model L1210 Leukemia (intraperitoneal) in B6D2F1 (BDF1) mice
Conditions: endpoint: mean survival time, higher = longer survival
In short: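 Ratio derived from survival: compound-dosed mice over vehicle-dosed mice, all bearing a transplantable tumor.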

[1] = dose: 100.0 mg/kg/injection, schedule: Q01DX001 (ip), vehicle: Klucel (hydroxypropylcellulose) (HPC)
[2] = dose: 100.0 mg/kg/injection, schedule: Q01DX009 (ip), vehicle: saline
[3] = dose: 100.0 mg/kg/injection, schedule: Q04DX002 (ip), vehicle: Klucel (hydroxypropylcellulose) (HPC)
[4] = dose: 100.0 mg/kg/injection, schedule: Q04DX003 (ip), vehicle: Klucel (hydroxypropylcellulose) (HPC)
[5] = dose: 200.0 mg/kg/injection, schedule: Q01DX001 (ip), vehicle: Klucel (hydroxypropylcellulose) (HPC)
[6] = dose: 200.0 mg/kg/injection, schedule: Q01DX009 (ip), vehicle: saline
[7] = dose: 200.0 mg/kg/injection, schedule: Q04DX002 (ip), vehicle: Klucel (hydroxypropylcellulose) (HPC)
[8] = dose: 200.0 mg/kg/injection, schedule: Q04DX003 (ip), vehicle: Klucel (hydroxypropylcellulose) (HPC)
[9] = dose: 400.0 mg/kg/injection, schedule: Q01DX001 (ip), vehicle: Klucel (hydroxypropylcellulose) (HPC)
[10] = dose: 400.0 mg/kg/injection, schedule: Q01DX009 (ip), vehicle: saline
[11] = dose: 400.0 mg/kg/injection, schedule: Q04DX002 (ip), vehicle: Klucel (hydroxypropylcellulose) (HPC)
[12] = dose: 100.0 mg/kg/injection, schedule: Q01DX001 (ip), vehicle: saline
[13] = dose: 200.0 mg/kg/injection, schedule: Q01DX001 (ip), vehicle: saline
[14] = dose: 400.0 mg/kg/injection, schedule: Q01DX001 (ip), vehicle: saline
[15] = dose: 100.0 mg/kg/injection, schedule: Q04DX003 (ip), vehicle: saline
[16] = dose: 400.0 mg/kg/injection, schedule: Q04DX003 (ip), vehicle: Klucel (hydroxypropylcellulose) (HPC)
[17] = dose: 100.0 mg/kg/injection, schedule: Q01DX001 (ip), vehicle: carboxymethylcellulose (CMC)
[18] = dose: 100.0 mg/kg/injection, schedule: Q04DX003 (ip), vehicle: saline with Tween-80
[19] = dose: 200.0 mg/kg/injection, schedule: Q04DX003 (ip), vehicle: saline with Tween-80

Measured: T/C

O=C(Nc1ccc(Nc2ccccc2)cc1)Nc1cccc2ccccc12
inactive: [1] 97 % of control | dose: 100.0 mg/kg/injection, schedule: Q01DX009 (ip), vehicle: Klucel (hydroxypropylcellulose) (HPC) 100 % of control | [2] 100 % of control | [3] 98 % of control and 105 % of control | [4] 97 % of control | [5] 92 % of control | dose: 200.0 mg/kg/injection, schedule: Q01DX009 (ip), vehicle: Klucel (hydroxypropylcellulose) (HPC) 90 % of control | [6] 100 % of control | [7] 93 % of control and 94 % of control | [8] 92 % of control | [9] 95 % of control | dose: 400.0 mg/kg/injection, schedule: Q01DX009 (ip), vehicle: Klucel (hydroxypropylcellulose) (HPC) 100 % of control | [10] 88 % of control | [11] 98 % of control and 102 % of control

c1ccc2c3c(ccc2c1)-c1oncc1CC3
inactive: [12] 95 % of control | [13] 103 % of control | [14] 93 % of control

NC(=S)N/N=C\c1c[nH]c2nccnc12
inactive: dose: 25.0 mg/kg/injection, schedule: Q01DX009 (ip), vehicle: water 108 % of control | dose: 50.0 mg/kg/injection, schedule: Q01DX009 (ip), vehicle: water 97 % of control | dose: 100.0 mg/kg/injection, schedule: Q01DX009 (ip), vehicle: water 102 % of control | dose: 200.0 mg/kg/injection, schedule: Q01DX009 (ip), vehicle: water 90 % of control | dose: 400.0 mg/kg/injection, schedule: Q01DX009 (ip), vehicle: water 88 % of control

O=C(c1ccccc1)N1CC1(c1ccccc1)C1(c2ccccc2)SCCCS1 (centres undefined)
inactive: [1] 95 % of control | [5] 98 % of control | [9] 92 % of control

CN(C)C(=O)c1cccc(N)c1
inactive: [2] 101 % of control | [15] 103 % of control | [6] 98 % of control | dose: 200.0 mg/kg/injection, schedule: Q04DX003 (ip), vehicle: saline 100 % of control | [10] 90 % of control | dose: 400.0 mg/kg/injection, schedule: Q04DX003 (ip), vehicle: saline 102 % of control

O=C1Nc2ccc(Br)cc2C1=Nc1cccnc1
inactive: [3] 116 % of control | [7] 95 % of control | [11] 116 % of control

O=[N+]([O-])c1ccccc1NC1c2ccccc2Oc2ccccc21
inactive: [4] 96 % of control | [8] 93 % of control | [16] 93 % of control

COc1ccc(C(=O)CBr)cc1OC
inactive: [17] 96 % of control

COc1ccc(CCNC(=O)Cc2ccccc2)cc1OC
inactive: dose: 50.0 mg/kg/injection, schedule: Q01DX009 (ip), vehicle: saline with Tween-80 90 % of control | dose: 100.0 mg/kg/injection, schedule: Q01DX009 (ip), vehicle: saline with Tween-80 93 % of control | [18] 92 % of control | dose: 200.0 mg/kg/injection, schedule: Q01DX009 (ip), vehicle: saline with Tween-80 94 % of control and 96 % of control | [19] 92 % of control | dose: 400.0 mg/kg/injection, schedule: Q01DX009 (ip), vehicle: saline with Tween-80 99 % of control

COC(=O)C1C2CC3C(OC(=O)C31C)C2I (centres undefined)
inactive: [12] 90 % of control | [13] 107 % of control | [14] 110 % of control

C[N+]1(CCCNC2=CC(=O)C(NCCC[N+]3(C)CCCCC3)=CC2=O)CCCCC1
inactive: dose: 0.5 mg/kg/injection, schedule: Q01DX001 (ip), vehicle: saline 105 % of control

COc1ccc(OC)c(CC(C)O)c1 (centres undefined)
inactive: [17] 101 % of control | dose: 200.0 mg/kg/injection, schedule: Q01DX001 (ip), vehicle: carboxymethylcellulose (CMC) 101 % of control | dose: 400.0 mg/kg/injection, schedule: Q01DX001 (ip), vehicle: carboxymethylcellulose (CMC) 98 % of control

Cc1c(C)c(Br)c(C)c(-c2c(O)c(Br)c(-c3c(C)c(C)c(C)c(Br)c3C)c(O)c2Br)c1C
inactive: [18] 97 % of control | [19] 90 % of control

Oc1cccc(-c2cccc(OCCCCCCCCCCBr)c2)c1
inactive: dose: 12.5 mg/kg/injection, schedule: Q01DX009 (ip), vehicle: DMSO 108 % of control | dose: 25.0 mg/kg/injection, schedule: Q01DX009 (ip), vehicle: DMSO 94 % of control | dose: 100.0 mg/kg/injection, schedule: Q04DX003 (ip), vehicle: DMSO 92 % of control | dose: 200.0 mg/kg/injection, schedule: Q04DX003 (ip), vehicle: DMSO 91 % of control

CC(C)C(=O)NNC(=O)C(C)C
inactive: [4] 100 % of control | [8] 108 % of control | [16] 106 % of control

COC(=O)/C=C(\C)Nc1ccc(Cc2ccc(NC(C)=O)cc2)cc1
inactive: [12] 95 % of control | [13] 98 % of control

C[CH2][Ge]1([CH2]C)[CH2]CC2(CCN(CCCN(C)C)C2)C[CH2]1
inactive: dose: 4.0 mg/kg/injection, schedule: Q01DX009 (ip), vehicle: saline 95 % of control | dose: 8.0 mg/kg/injection, schedule: Q01DX009 (ip), vehicle: saline 104 % of control | dose: 16.0 mg/kg/injection, schedule: Q01DX009 (ip), vehicle: saline 102 % of control | dose: 25.0 mg/kg/injection, schedule: Q01DX001 (ip), vehicle: saline 92 % of control | dose: 25.0 mg/kg/injection, schedule: Q01DX009 (ip), vehicle: saline 104 % of control and 107 % of control | dose: 25.0 mg/kg/injection, schedule: Q04DX002 (ip), vehicle: saline 106 % of control and 111 % of control | dose: 25.0 mg/kg/injection, schedule: Q04DX003 (ip), vehicle: saline 95 % of control | dose: 32.0 mg/kg/injection, schedule: Q01DX009 (ip), vehicle: saline 104 % of control | dose: 50.0 mg/kg/injection, schedule: Q01DX001 (ip), vehicle: saline 96 % of control | dose: 50.0 mg/kg/injection, schedule: Q01DX009 (ip), vehicle: saline 98 % of control and 104 % of control | dose: 50.0 mg/kg/injection, schedule: Q04DX002 (ip), vehicle: saline 98 % of control and 109 % of control | dose: 50.0 mg/kg/injection, schedule: Q04DX003 (ip), vehicle: saline 91 % of control | dose: 64.0 mg/kg/injection, schedule: Q01DX009 (ip), vehicle: saline 104 % of control | [12] 110 % of control | [2] 88 % of control and 91 % of control and 92 % of control | [15] 95 % of control

CC(C)C(=O)[O][Sn]([CH3])([CH3])[CH3]
inactive: dose: 0.19 mg/kg/injection, schedule: Q01DX009 (ip), vehicle: Klucel (hydroxypropylcellulose) (HPC) 90 % of control | dose: 0.39 mg/kg/injection, schedule: Q01DX009 (ip), vehicle: Klucel (hydroxypropylcellulose) (HPC) 95 % of control | dose: 0.78 mg/kg/injection, schedule: Q01DX009 (ip), vehicle: Klucel (hydroxypropylcellulose) (HPC) 93 % of control and 106 % of control | dose: 0.78 mg/kg/injection, schedule: Q04DX002 (ip), vehicle: Klucel (hydroxypropylcellulose) (HPC) 95 % of control | dose: 1.56 mg/kg/injection, schedule: Q04DX002 (ip), vehicle: Klucel (hydroxypropylcellulose) (HPC) 100 % of control | dose: 3.12 mg/kg/injection, schedule: Q04DX002 (ip), vehicle: Klucel (hydroxypropylcellulose) (HPC) 103 % of control
